From US6514989B1, “Aromatic and heteroaromatic substituted 1,2,4-triazolo pyridine derivatives” (Hoffmann-La Roche Inc., priority 2001, dated 2003)

What was measured:
[1] = molecular target: T1, human adenosine A2a receptor (Homo sapiens, UniProt P29274); assay: Human adenosine A2a receptor radioligand binding assay ([125I]-AB-MECA, CHO cell membranes); conditions: for Selectivity A1/A2a: ratio obtained by dividing KiHA1 by KiHA2A; for Ki: recombinant human A2a receptor expressed in CHO cells, Ki from IC50 by Cheng-Prussoff equation, read-out: hA2a Ki
T1 construct: expressed in transfected cells; host or cells: CHO cells, semliki forest virus expression system; membrane preparation
Protocol: Human Adenosine A2a Receptor
The gene encoding human adenosine A2a receptor was recombinantly introduced and expressed in chinese hamster ovary (CHO) cells using the semliki forest virus expression system. Cells were harvested, washed twice by centrifugation, homogenized and again washed by centrifugation. The final washed membrane pellet was suspended in a Tris (50 mM) buffer containing 120 mM NaCl, 5 mM KCl, 2 mM CaCl2 and 10 mM MgCl2 (pH 7.4) (buffer A). The [^125I]-AB-MECA ([N(6)-(4-amino-3-iodobenzyl)-5′-N-methylcarbamoyl-adenosine]; 0.05 nM) binding assay was carried out in 96-well a plates in the presence of 20 μg of membrane protein and 0.1 U adenosine deaminase in a final volume of […] of buffer A. Non-specific binding was defined using xanthine amine congener (XAC; 2 μM). Compounds were tested at 10 concentrations from 10 μM-0.3 nM. All assays were conducted in duplicate and repeated at least two times. Assay plates were incubated for 1 hour at room temperature before filtration through Whatman Unifilter GF/C 96-well filter plates (preincubated with 0.3% polyethyleneimine). Filters were washed 3 times with 0.3 ml of cold (4° C.) Tris (50 mM)—NaC […]
[…] 1 (120 mM) buffer (pH 7.4). Microscint 40 scintillation fluid (50 μl) was added to each well and the wells sealed. After gentle shaking for 20 min, plates were counted on a Packard Topcount scintillation counter. IC50 values were calculated using a non-linear curve fitting program and Ki values calculated using the Cheng-Prussoff equation.
(§1) In accordance with the invention, it has been shown that compounds of formula I have a high affinity toward the A2A receptor. In Table I below specific values of prepared compounds are described, Values of KiHA2A and KiHA1 are shown in Table I for compounds of formula 1. A low Ki value is indicative of a particular compound's high affinity toward a particular receptor and conversely a higher Ki value is indicative of a lower affinity for that compound toward a particular receptor. […] Generally speaking, compounds that have a higher HA1/HA2A ratio are able to give a substantially complete blockade of the HA2A receptor without substantially affecting the A1 receptor.

[2] = molecular target: T2, human adenosine A1 receptor (Homo sapiens, UniProt P30542); assay: Human adenosine A1 receptor radioligand binding assay ([3H]-DPCPX, SPA, CHO cell membranes); conditions: recombinant human A1 receptor expressed in CHO cells; [3H]-DPCPX 0.6 nM; Ki from IC50 by Cheng-Prussoff equation; read-out: hA1 Ki
T2 construct: expressed in transfected cells; host or cells: CHO cells, semliki forest virus expression system; membrane preparation
T2 sequence (P30542 1-326): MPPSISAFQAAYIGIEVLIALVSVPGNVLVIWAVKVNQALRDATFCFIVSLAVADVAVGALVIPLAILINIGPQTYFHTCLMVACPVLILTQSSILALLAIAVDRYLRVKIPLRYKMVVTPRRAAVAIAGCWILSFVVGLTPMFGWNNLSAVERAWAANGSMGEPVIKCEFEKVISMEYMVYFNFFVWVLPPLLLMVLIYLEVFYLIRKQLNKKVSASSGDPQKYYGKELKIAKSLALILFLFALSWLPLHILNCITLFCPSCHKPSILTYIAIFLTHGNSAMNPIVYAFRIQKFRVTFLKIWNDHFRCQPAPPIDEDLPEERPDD
Protocol: Human Adenosine A^1 Receptor
The gene encoding human adenosinie A1 receptor was recombinantly introduced and expressed in chinese hamster ovary (CHO) cells using the semliki forest virus expression system. Cells were harvested, washed twice by centrifugation, homogenized and again washed by centrifugation. The final washed membrane pellet was suspended in a Tris (50 mM) buffer containing 120 mM NaCl, 5 mM KCl, 2 mM CaCl2 and 10 mM MgCl2 (pH 7.4) (buffer A). The [^3H]-DPCPX (([propyl-3H]8-cyclopentyl-1,3-dipropyxanthine); 0.6 nM) binding assay was carried out in 96-well plates in the presence of 2.5 μg of membrane protein, 0.5 mg of Ysi-poly-1-lysine SPA beads and 0.1 U adenosine deaminase in a final volume of 200 μl of buffer A. Non-specific binding was defined using xanthine amine congener (XAC; 2 μM). Compounds were tested at 10 concentrations from 10 μM-0.3 nM. All assays were conducted in duplicate and repeated at least two times. Assay plates were incubated for 1 hour at room temperature before centrifugation and then bound ligand determined using a Packard Topcount scintillation counter. IC50 values were calculated using a non-linear curve fitting program and Ki values calculated using the Cheng-Prussoff equation.
as §1

T1 sequence (P29274 whole entry): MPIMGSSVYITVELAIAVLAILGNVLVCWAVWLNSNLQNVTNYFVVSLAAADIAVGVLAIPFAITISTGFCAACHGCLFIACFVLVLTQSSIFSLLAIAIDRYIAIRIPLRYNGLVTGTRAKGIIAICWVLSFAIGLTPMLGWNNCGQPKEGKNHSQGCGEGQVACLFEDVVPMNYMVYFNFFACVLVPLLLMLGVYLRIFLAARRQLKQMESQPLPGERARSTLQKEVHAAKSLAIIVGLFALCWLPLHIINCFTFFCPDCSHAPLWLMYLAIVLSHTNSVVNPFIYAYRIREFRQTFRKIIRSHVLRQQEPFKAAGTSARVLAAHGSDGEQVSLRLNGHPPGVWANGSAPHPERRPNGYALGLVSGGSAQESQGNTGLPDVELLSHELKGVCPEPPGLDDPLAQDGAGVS

Compound	Selectivity A1/A2a [1]	Ki [1] [nM]	Ki [2] [nM]
COc1ccc(-c2ccccc2Cl)n2nc(NC(=O)c3ccc(C)s3)nc12 [Example 36, 5-Methyl-thiophene-2-carboxylic acid [5-(2-chloro-phenyl)-8-methoxy-[1,2,4]triazolo[1,5-a]pyridin-2-yl]-amide]		527	
COc1ccc(-c2cccc(C(F)(F)F)c2)n2nc(NC(=O)c3ccc(C)s3)nc12 [Example 40, 5-Methyl-thiophene-2-carboxylic acid [8-methoxy-5-(3-trifluoromethyl-phenyl)-[1,2,4]triazolo[1,5-a]pyridin-2-yl]-amide]		547	
COc1ccc(-c2cccc(C)c2)n2nc(NC(=O)c3ccc(C)s3)nc12 [Example 38, 5-Methyl-thiophene-2-carboxylic acid (8-methoxy-5-m-tolyl [1,2,4]triazolo[1,5-a]pyridin-2-yl)-amide]		277	
COc1ccc(-c2ccc(C)cc2)n2nc(NC(=O)c3ccc(C)s3)nc12 [Example 39, 5-Methyl-thiophene-2-carboxylic acid (8-methoxy-5-p-tolyl-[1,2,4]triazolo[1,5-a]pyridin-2-yl)-amide]		451	
COc1ccc(-c2cccc(C(C)=O)c2)n2nc(NC(=O)c3ccc(C)s3)nc12 [Example 43, 5-Methyl-thiophene-2-carboxylic acid [5-(3-acetyl-phenyl)-8-methoxy-[1,2,4]triazolo[1,5-a]pyridin-2-yl]-amide]		618	
COc1ccc(-c2ccccc2)n2nc(NC(=O)c3ccccc3F)nc12 [Example 21, 2-Fluoro-N-(8-methoxy-5-phenyl-[1,2,4]triazolo[1,5-a]pyridin-2-yl)-benzamide]		384	
COc1ccc(-c2ccccc2C)n2nc(NC(=O)c3ccc(C)s3)nc12 [Example 37, 5-Methyl-thiophene-2-carboxylic acid (8-methoxy-5-o-tolyl-[1,2,4]triazolo[1,5-a]pyridin-2-yl)-amide]		938	
CCOC(=O)c1cccc(-c2ccc(OC)c3nc(NC(=O)c4ccc(F)cc4)nn23)c1 [Example 51, 3-[2-(4-Fluoro-benzoylamino)-8-methoxy-[1,2,4]triazolo[1,5-a]pyridin-5-yl]-benzoic acid ethyl ester]		480	
COc1ccc(-c2ccc(Cl)cc2)n2nc(NC(=O)c3ccc(F)cc3)nc12 [Example 48, N-[5-(4-Chloro-phenyl)-8-methoxy-[1,2,4]triazolo[1,5-a]pyridin-2-yl]-4-fluoro-benzamide]		624	
COc1ccc(-c2ccc3[nH]ccc3c2)n2nc(NC(=O)c3ccc(C)s3)nc12 [Example 45, 5-Methyl-thiophene-2-carboxylic acid [5-(1H-indol-5-yl)-8-methoxy-[1,2,4]triazolo[1,5-a]pyridin-2-yl]-amide]		852	
CCOC(=O)c1cccc(-c2ccc(OC)c3nc(NC(=O)c4ccc(C)s4)nn23)c1 [Example 46, 3-{8-Methoxy-2-[(5-methyl-thiophene-2-carbonyl)-amino]-[1,2,4]triazolo[1,5-a]pyridin-5-yl}-benzoic acid ethyl ester]		332	
COc1ccc(-c2ccc(OC)c3nc(NC(=O)c4ccc(F)cc4)nn23)cc1 [Example 49, 4-Fluoro-N-[8-methoxy-5-(4-methoxy-phenyl)-[1,2,4]triazolo[1,5-a]pyridin-2-yl]-benzamide]		346	
COc1ccc(-c2ccc(SC)cc2)n2nc(NC(=O)c3ccc(F)cc3)nc12 [Example 50, 4-Fluoro-N-[8-methoxy-5-(4-methylsulfanyl-phenyl)-[1,2,4]triazolo[1,5-a]pyridin-2-yl]-benzamide]		855	
COc1ccc(-c2ccc(SC)cc2)n2nc(NC(=O)c3ccc(C)s3)nc12 [Example 42, 5-Methyl-thiophene-2-carboxylic acid [8-methoxy-5-(4-methylsulfanyl-phenyl)-[1,2,4]triazolo[1,5-a]pyridin-2-yl]-amide]		287	

Further compounds by falling Ki [1], results first:

Selectivity A1/A2a [1]	Ki [1] [nM]	Ki [2] [nM]	Compound
	269		COc1ccc(-c2cccc(Cl)c2)n2nc(NC(=O)c3ccc(F)cc3)nc12 [Example 47, N-[5-(3-Chloro-phenyl)-8-methoxy-[1,2,4]triazolo[1,5-a]pyridin-2-yl]-4-fluoro-benzamide]
	266		COc1ccc(-c2ccccc2)n2nc(NC(=O)c3ccccc3Br)nc12 [Example 22, 2-Bromo-N-(8-methoxy-5-phenyl-[1,2,4]triazolo[1,5-a]pyridin-2-yl)-benzamide]
	254		COc1ccc(-c2cccc(NC(C)=O)c2)n2nc(NC(=O)c3ccc(C)s3)nc12 [Example 41, 5-Methyl-thiophene-2-carboxylic acid [5-(3-acetylamino-phenyl)-8-methoxy-[1,2,4]triazolo[1,5-a]pyridin-2-yl]-amide]
	246		5-Methyl-thiophene-2-carboxylic acid[8-methoxy-5-(4-vinyl-phenyl)-[1,2,4]triazolo[1,5-a]pyridin-2-yl]-amide [Example 44]
15.9	208	3300	COc1ccc(-c2cccs2)n2nc(NC(=O)c3cccc(CCl)c3)nc12 [Example 20, 3-Chloromethyl-N-(8-methoxy-5-thiophen-2-yl-[1,2,4]triazolo[1,5-a]pyridin-2-yl)-benzamide]
15.8	181	2870	COc1ccc(-c2ccccc2)n2nc(NC(=O)c3cccc(Cl)c3)nc12 [Example 6, 3-Chloro-N-(8-methoxy-5-phenyl-[1,2,4]triazolo[1,5-a]pyridin-2-yl)-benzamide]
11.6	176	2030	COc1ccc(-c2ccccc2)n2nc(NC(=O)c3cccc(F)c3)nc12 [Example 3, 3-Fluoro-N-(8-methoxy-5-phenyl-[1,2,4]triazolo[1,5-a]pyridin-2-yl)-benzamide]
11.5	173	2000	CCc1ccc(C(=O)Nc2nc3c(OC)ccc(-c4ccccc4)n3n2)cc1 [Example 10, 4-Ethyl-N-(8-methoxy-5-phenyl-[1,2,4]triazolo[1,5-a]pyridin-2-yl)-benzamide]
36.5	143	5210	COc1ccc(-c2ccc(OC)c3nc(NC(=O)c4ccc(C)s4)nn23)cc1 [Example 28, 5-Methyl-thiophene-2-carboxylic acid [8-methoxy-5-(4-methoxy-phenyl) [1,2,4]triazolo[1,5-a]pyridin-2-yl]-amide]
24.2	136	3300	CCc1ccc(C(=O)Nc2nc3c(OC)ccc(-c4cccs4)n3n2)cc1 [Example 18, 4-Ethyl-N-(8-methoxy-5-thiophen-2-yl-[1,2,4]triazolo[1,5-a]pyridin-2-yl)-benzamide]
18.6	72.9	1360	CCOc1cccc(-c2ccc(OC)c3nc(NC(=O)c4ccc(C)s4)nn23)c1 [Example 30, 5-Methyl-thiophene-2-carboxylic acid [5-(3-ethoxy-phenyl)-8-methoxy-[1,2,4]triazolo[1,5-a]pyridin-2-yl]-amide]
